Results reported in patent US9670189B2, “Substituted condensed pyrimidine compounds” (GRÜNENTHAL GMBH, priority 2013, dated 2017).

test system: not given; experiment: not given; conditions: not given

Row | melting point | Structure (SMILES)
1 | 263 to 264 °C | COc1ccc(-c2nc3c(c(Oc4ccc(CC(=O)O)cc4)n2)CCC3)cc1Br [Compound 14, 2-(4-(2-(3-Bromo-4-methoxyphenyl)-6,7-dihydro-5H-cyclopenta[d]pyrimidin-4-yloxy)phenyl)acetic acid]

target: T1, human PDE4B1 (Homo sapiens, UniProt Q07343); experiment: cAMP HTRF assay to determine the activity of hPDE4B1; assay type: biochemical; conditions: 1 μM test concentration; human recombinant PDE4B1, cAMP 40 nM; read-out: Inhibition at 1 μM test concentration [%] (Percentage inhibition of PDE4B)
T1 construct: host or cells: Sf9 cells
Description: cAMP HTRF® Assay to Determine the Activity of hPDE4B1
The inhibiting effect of the compounds on the enzyme activity of human PDE4B1 was measured by the quantification of 5′-adenosine monophosphate (5′-AMP), which is formed from 3′,5′-adenosine monophosphate (cAMP). Human recombinant enzyme, expressed in Sf9 cells, and the HTRF (homogeneous time-resolved fluorescence) detection method were used in the assay.
The test compound or water (control) was mixed with the human recombinant PDE4B1 enzyme (4.8 U) in a buffer consisting of 44.4 mM tris-HCl, 5.28 mM MgCl2, 2.64 mM DTT and 0.044% Tween 20 (pH 7.8). After adding the cAMP enzyme substrate (final concentration 40 nM) the mixture was incubated for 30 minutes at room temperature. Then a fluorescence acceptor (Dye2 marked with cAMP), a fluorescence donor (anti-cAMP antibody marked with a europium cryptate) and the non-specific phosphodiesterase inhibitor IBMX (3-isobutyl-1-methylxanthine; final concentration 1 mM) were added. After 60 minutes the fluorescence transfer, which correlates with the amount of remaining cAMP, was measured with a microplate reader (Rubystar, BMG) at λex=337 nm, λem=620 nm and λem=665 nm. The enzyme activity was calculated from the quotient formed from the measured signal at 665 nm and that at 620 nm. The result was expressed as the percentage inhibition of enzyme activity of the control (without PDE4 inhibitor) (literature: N. Saldou et al., Comparison of recombinant human PDE4 isoforms: interaction with substrate and inhibitors, Cell. Signal. Vol. 10, No. 6, 427-440, 1998). The enzyme was omitted for measurement of the basal control.

T1 sequence (Q07343 whole entry): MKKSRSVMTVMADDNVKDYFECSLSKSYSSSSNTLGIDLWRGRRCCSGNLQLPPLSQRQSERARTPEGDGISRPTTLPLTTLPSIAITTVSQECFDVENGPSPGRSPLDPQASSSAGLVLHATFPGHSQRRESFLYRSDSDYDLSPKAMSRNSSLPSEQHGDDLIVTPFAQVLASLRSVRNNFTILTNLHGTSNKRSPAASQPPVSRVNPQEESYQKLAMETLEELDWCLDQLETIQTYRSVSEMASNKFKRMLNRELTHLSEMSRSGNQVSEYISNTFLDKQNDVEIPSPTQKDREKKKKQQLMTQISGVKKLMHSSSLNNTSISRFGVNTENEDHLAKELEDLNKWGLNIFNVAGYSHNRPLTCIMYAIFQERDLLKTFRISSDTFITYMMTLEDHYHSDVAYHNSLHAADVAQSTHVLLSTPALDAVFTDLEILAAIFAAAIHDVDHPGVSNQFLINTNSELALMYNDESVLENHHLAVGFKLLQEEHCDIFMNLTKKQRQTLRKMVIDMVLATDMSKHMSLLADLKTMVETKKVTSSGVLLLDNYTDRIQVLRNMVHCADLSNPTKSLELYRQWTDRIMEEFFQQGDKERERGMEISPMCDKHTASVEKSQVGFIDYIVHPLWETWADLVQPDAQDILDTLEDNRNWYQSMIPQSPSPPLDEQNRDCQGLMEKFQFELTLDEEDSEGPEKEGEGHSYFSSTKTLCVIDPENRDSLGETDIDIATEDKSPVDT

Row | inhibition at 1 µM | Structure (SMILES)
2 | 75% | O=C(O)Cc1ccc(Cc2nc(-c3ccc(Cl)s3)nc3c2CCC3)cc1 [Compound 9, 2-(4-((2-(5-Chlorothiophen-2-yl)-6,7-dihydro-5H-cyclopenta[d]pyrimidin-4-yl)methyl)phenyl)acetic acid]
3 | 68% | COc1ccc(-c2nc3c(c(Oc4ccc(CC(=O)O)cc4)n2)CCC3)cc1Br [Compound 14, 2-(4-(2-(3-Bromo-4-methoxyphenyl)-6,7-dihydro-5H-cyclopenta[d]pyrimidin-4-yloxy)phenyl)acetic acid]
4 | 50% | O=C(O)Cc1ccc(Oc2nc(-c3ccc(Cl)s3)nc3c2CSCC3)cc1 [Compound 22, 2-(4-(2-(5-Chlorothiophen-2-yl)-7,8-dihydro-5H-thiopyrano[4,3-d]pyrimidin-4-yloxy)phenyl)acetic acid]
5 | 55% | O=C(O)Cc1ccc(Oc2nc(-c3cncs3)nc3c2CCC3)cc1 [Compound 45, 2-(4-(2-(Thiazol-5-yl)-6,7-dihydro-5H-cyclopenta[d]pyrimidin-4-yloxy)phenyl)acetic acid]
6 | 72% | O=C(O)Cc1ccc(Oc2nc(-c3ccc(O)c(Cl)c3)nc3c2CCC3)cc1 [Compound 13, 2-(4-(2-(3-Chloro-4-hydroxyphenyl)-6,7-dihydro-5H-cyclopenta[d]pyrimidin-4-yloxy)phenyl)acetic acid]
